Assay results from US20220313701A1, “MODULATORS OF TREX1” (Constellation Pharmaceuticals, Inc., priority 2019, published 2022).

Columns and labels:
[1] = biological target: T1, human TREX2 (residues M44-A279) (Homo sapiens, UniProt Q9BQ50); assay: TREX2 Biochemical Assay (fluorescence assay, degradation of dsDNA substrate); details: 2.5 nM TREX2, 60 nM dsDNA substrate, 25 minutes at room temperature
T1 construct: human TREX2 (residues M44-A279, expressed in E. coli); His-Tev (His tag with TEV site) (N); made in house; host or cells: E. coli
T1 sequence (Q9BQ50 44-279 isoform Q9BQ50-1): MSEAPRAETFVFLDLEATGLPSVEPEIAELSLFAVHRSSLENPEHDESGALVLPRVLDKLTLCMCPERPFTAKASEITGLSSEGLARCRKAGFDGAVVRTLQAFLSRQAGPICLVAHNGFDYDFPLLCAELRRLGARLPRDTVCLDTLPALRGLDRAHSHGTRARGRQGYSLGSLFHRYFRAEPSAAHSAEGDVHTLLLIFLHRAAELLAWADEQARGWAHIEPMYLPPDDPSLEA
Protocol: Degradation of the dsDNA liberates free fluorophore to produce a fluorescent signal. Specifically, 7.5 μL of N-terminally His-Tev tagged human TREX2 (residues M44-A279, expressed in E. coli and purified in house) in reaction buffer (50 mM Tris (pH 7.4), 150 mM NaCl, 2 mM DTT, 0.1 mg/mL BSA, 0.01% (v/v) Tween-20 and 100 mM MgCl2) was added to a 384-well Black ProxiPlate Plus (Perkin Elmer) which already contained compound (150 nL) at varying concentrations as a 10 point dose-response in DMSO. To this was added 7.5 μL of dsDNA substrate (Strand A: 5′ TEX615/GCT AGG CAG 3′; Strand B: 5′ CTG CCT AGC/IAbRQSp (IDT)) in reaction buffer. Final concentrations were 2.5 nM TREX2, 60 nM dsDNA substrate in reaction buffer with 1.0% DMSO (v/v). After 25 minutes at room temperature, reactions were quenched by the addition of 5 μL of stop buffer (same as reaction buffer plus 200 mM EDTA). Final concentrations in the quenched reaction mixture were […] TREX2, 45 nM DNA and 50 mM EDTA in a volume of 20 μL. After a 5-minute incubation at room temperature, plates were read in a laser sourced Envision (Perkin-Elmer), measuring fluorescence at 615 nm following excitation w/570 nm light. IC50 values were calculated by comparing the measured fluorescence at 615 nm ratio relative to control wells pre-quenched w/stop buffer (100% inhibition) and no inhibitor (0% inhibition) controls as using non-linear least square four parameter fits and either Genedata or GraphPad Prism (GraphPad Software, Inc.).

full length human TREX1 = biological target: T2, full length human TREX1 (Homo sapiens, UniProt Q9NSU2); assay: TREX1 Biochemical Assay (fluorescence assay, degradation of dsDNA substrate); details: 150 pM TREX1, 60 nM dsDNA substrate, 25 minutes at room temperature
T2 construct: N-terminally His-Tev tagged full length human TREX1; His-Tev (His tag with TEV site) (N); made in house; host or cells: E. coli
T2 sequence (Q9NSU2 1-314): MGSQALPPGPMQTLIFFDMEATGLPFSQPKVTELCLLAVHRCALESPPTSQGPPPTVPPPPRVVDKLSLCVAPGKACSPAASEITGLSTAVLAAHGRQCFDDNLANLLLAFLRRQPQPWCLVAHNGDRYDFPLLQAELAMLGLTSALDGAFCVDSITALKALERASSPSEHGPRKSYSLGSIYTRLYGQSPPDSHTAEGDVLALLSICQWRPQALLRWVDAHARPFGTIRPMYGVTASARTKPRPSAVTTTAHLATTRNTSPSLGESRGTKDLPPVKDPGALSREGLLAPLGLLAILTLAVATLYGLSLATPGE
Protocol: Degradation of the dsDNA liberates free fluorophore to produce a fluorescent signal. Specifically, 7.5 μL of N-terminally His-Tev tagged full length human TREX1 (expressed in E. coli and purified in house) in reaction buffer (50 mM Tris (pH 7.4), 150 mM NaCl, 2 mM DTT, 0.1 mg/mL BSA, 0.01% (v/v) Tween-20 and either 100 mM MgCl2) was added to a 384-well Black ProxiPlate Plus (Perkin Elmer) which already contained compound (150 nL) at varying concentrations as a 10 point dose-response in DMSO. To this was added 7.5 μL of dsDNA substrate (Strand A: 5′ TEX615/GCT AGG CAG 3′; Strand B: 5′ CTG CCT AGC/IAbRQSp (Integrated DNA Technologies)) in reaction buffer. Final concentrations were 150 pM TREX1, 60 nM dsDNA substrate in reaction buffer with 1.0% DMSO (v/v). After 25 minutes at room temperature, reactions were quenched by the addition of 5 μL of stop buffer (same as reaction buffer plus 200 mM EDTA). Final concentrations in the quenched reaction were 112.5 pM TREX1, 45 nM DNA and 50 mM EDTA in a volume of 20 μL. After a 5-minute incubation at room temperature, plates were read in a laser sourced Envision (Perkin-Elmer), measuring fluorescence at 615 nm following excitation w/570 nm light. IC50 values were calculated by comparing the measured fluorescence at 615 nm ratio relative to control wells pre-quenched w/stop buffer (100% inhibition) and no inhibitor (0% inhibition) controls as using non-linear least square four parameter fits and either Genedata or GraphPad Prism (GraphPad Software, Inc.).

IC50 [1] [µM] | IC50 (full length human TREX1) [µM] | SMILES
> 100 | 1 to 10 | Cc1nn(C)cc1-c1cncc(N2CC[C@@](O)(c3ccc(F)c(F)c3)C[C@@H]2C)n1 (racemic) [Example 102, (rac)-cis-4-(3,4-difluorophenyl)-1-(6-(1,3-dimethyl-1H-pyrazol-4-yl)pyrazin-2-yl)-2-methylpiperidin-4-ol]
> 100 | 1 to 10 | Cc1nn(C)cc1-c1cncc(N2CC[C@@](O)(c3ccc(F)c(F)c3)C[C@H]2C)n1 (racemic) [Example 103, (rac)-trans-4-(3,4-difluorophenyl)-1-(6-(1,3-dimethyl-1H-pyrazol-4-yl)pyrazin-2-yl)-2-methylpiperidin-4-ol]
10 to 100 | 1 to 10 | OC1(c2ccc(Cl)cc2)CCN(c2cncc(-n3cccn3)n2)CC1 [Example 1, 1-(6-(1H-pyrazol-1-yl)pyrazin-2-yl)-4-(4-chlorophenyl)piperidin-4-ol]
> 100 | > 10 | COc1ccc(C2(O)CCN(c3cncc(-n4cccn4)n3)CC2)cc1 [Example 2, 1-(6-(1H-pyrazol-1-yl)pyrazin-2-yl)-4-(4-methoxyphenyl)piperidin-4-ol]
> 100 | > 10 | OC1(c2ccccc2F)CCN(c2cncc(-n3cccn3)n2)CC1 [Example 3, 1-(6-(1H-pyrazol-1-yl)pyrazin-2-yl)-4-(2-fluorophenyl)piperidin-4-ol]
10 to 100 | 0.1 to 1 | Cn1cc(-c2cncc(N3CCC(O)(c4ccc(F)c(F)c4)CC3)n2)cn1 [Example 4, 4-(3,4-difluorophenyl)-1-(6-(1-methyl-1H-pyrazol-4-yl)pyrazin-2-yl)piperidin-4-ol]
> 100 | > 10 | Cn1cc(-c2cncc(N3CCC(O)(Cc4ccccc4)CC3)n2)cn1 [Example 5, 4-benzyl-1-(6-(1-methyl-1H-pyrazol-4-yl)pyrazin-2-yl)piperidin-4-ol]
> 100 | > 10 | Cn1cc(-c2cncc(N3CCC(O)(CCc4ccccc4)CC3)n2)cn1 [Example 6, 1-(6-(1-methyl-1H-pyrazol-4-yl)pyrazin-2-yl)-4-phenethylpiperidin-4-ol]
> 100 | 1 to 10 | Cn1cc(-c2cncc(N3CCC(O)(c4ccc(F)cc4)CC3)n2)cn1 [Example 7, 4-(4-fluorophenyl)-1-(6-(1-methyl-1H-pyrazol-4-yl)pyrazin-2-yl)piperidin-4-ol]
> 100 | 0.1 to 1 | Cc1nn(C)cc1-c1cncc(N2CCC(O)(c3ccc(F)cc3)CC2)n1 [Example 8, 1-(6-(1,3-dimethyl-1H-pyrazol-4-yl)pyrazin-2-yl)-4-(4-fluorophenyl)piperidin-4-ol]
10 to 100 | < 0.1 | Cc1nn(C)cc1-c1cncc(N2CCC(O)(c3ccc(F)c(F)c3)CC2)n1 [Example 9, 4-(3,4-difluorophenyl)-1-(6-(1,3-dimethyl-1H-pyrazol-4-yl)pyrazin-2-yl)piperidin-4-ol]
10 to 100 | < 0.1 | Cn1cc(-c2cncc(N3CCC(O)(c4ccc(F)c(F)c4)CC3)n2)c(C(F)(F)F)n1 [Example 10, 4-(3,4-difluorophenyl)-1-(6-(1-methyl-3-(trifluoromethyl)-1H-pyrazol-4-yl)pyrazin-2-yl)piperidin-4-ol]
10 to 100 | 0.1 to 1 | Cn1cc(-c2cncc(N3CCC(O)(c4ccc(F)c(F)c4)CC3)n2)c(C2CC2)n1 [Example 11, 1-(6-(3-cyclopropyl-1-methyl-1H-pyrazol-4-yl)pyrazin-2-yl)-4-(3,4-difluorophenyl)piperidin-4-ol]
> 100 | 1 to 10 | Cc1c(-c2cncc(N3CCC(O)(c4ccc(F)cc4)CC3)n2)cnn1C [Example 12, 1-(6-(1,5-dimethyl-1H-pyrazol-4-yl)pyrazin-2-yl)-4-(4-fluorophenyl)piperidin-4-ol]
> 100 | 1 to 10 | OC1(c2ccc(F)cc2)CCN(c2cncc(-c3cnn(C(F)F)c3)n2)CC1 [Example 13, 1-(6-(1-(difluoromethyl)-1H-pyrazol-4-yl)pyrazin-2-yl)-4-(4-fluorophenyl)piperidin-4-ol]
> 100 | 1 to 10 | OC1(c2ccc(F)cc2)CCN(c2cncc(-c3cnn(Cc4ccccc4)c3)n2)CC1 [Example 14, 1-(6-(1-benzyl-1H-pyrazol-4-yl)pyrazin-2-yl)-4-(4-fluorophenyl)piperidin-4-ol]
> 100 | 0.1 to 1 | Cc1ccc(-c2cncc(N3CCC(O)(c4ccc(F)cc4)CC3)n2)cn1 [Example 15, 4-(4-fluorophenyl)-1-(6-(6-methylpyridin-3-yl)pyrazin-2-yl)piperidin-4-ol]
> 100 | 1 to 10 | OC1(c2ccc(F)cc2)CCN(c2cncc(-c3cccnc3)n2)CC1 [Example 16, 4-(4-fluorophenyl)-1-(6-(pyridin-3-yl)pyrazin-2-yl)piperidin-4-ol]
10 to 100 | 0.1 to 1 | Cc1ccc(-c2cncc(N3CCC(O)(c4ccc(F)c(F)c4)CC3)n2)c(C)n1 [Example 17, 4-(3,4-difluorophenyl)-1-(6-(2,6-dimethylpyridin-3-yl)pyrazin-2-yl)piperidin-4-ol]
> 100 | 1 to 10 | OC1(c2ccc(F)cc2)CCN(c2cncc(-c3cncnc3)n2)CC1 [Example 18, 4-(4-fluorophenyl)-1-(6-(pyrimidin-5-yl)pyrazin-2-yl)piperidin-4-ol]
> 100 | 1 to 10 | Cc1noc(C)c1-c1cncc(N2CCC(O)(c3ccc(F)cc3)CC2)n1 [Example 19, 1-(6-(3,5-dimethylisoxazol-4-yl)pyrazin-2-yl)-4-(4-fluorophenyl)piperidin-4-ol]
> 100 | 1 to 10 | CN(C)C(=O)c1cccc(-c2cncc(N3CCC(O)(c4ccc(F)cc4)CC3)n2)c1 [Example 20, 3-(6-(4-(4-fluorophenyl)-4-hydroxypiperidin-1-yl)pyrazin-2-yl)-N,N-dimethylbenzamide]
> 100 | 1 to 10 | CNC(=O)c1ccc(-c2cncc(N3CCC(O)(c4ccc(F)cc4)CC3)n2)cc1 [Example 21, 4-(6-(4-(4-fluorophenyl)-4-hydroxypiperidin-1-yl)pyrazin-2-yl)-N-methylbenzamide]
> 100 | 1 to 10 | CS(=O)(=O)c1ccc(-c2cncc(N3CCC(O)(c4ccc(F)cc4)CC3)n2)cc1 [Example 22, 4-(4-fluorophenyl)-1-(6-(4-(methylsulfonyl)phenyl)pyrazin-2-yl)piperidin-4-ol]
> 100 | 1 to 10 | N#Cc1ccccc1-c1cncc(N2CCC(O)(c3ccc(F)cc3)CC2)n1 [Example 23, 2-(6-(4-(4-fluorophenyl)-4-hydroxypiperidin-1-yl)pyrazin-2-yl)benzonitrile]
